# Measurements reported in paper PMC12116161, “An Elastase Inhibitor ShSPI from Centipede Attenuates Bleomycin-Induced Pulmonary Fibrosis” (Toxins, 2025).
# Where a SMILES comes first, the peptide text is derived from it. Bridges are numbered along the chain shown (N, C = ends).
# Columns and labels:
# [1] = system: MCP-1, IL-6, IL-1β, IFN-γ, IL-10, TGF-β mRNA in lung tissue; experiment: RT-qPCR of inflammatory factor mRNA in lung tissue of IPF mice; type: in vivo, ICR mice; settings: tracheal spray once daily for 7 days, BLM-induced IPF mice
# Method: Animal Model Preparation: The peptide powder was dissolved in pre-cooled saline and filtered to remove bacteria, then a spray needle was attached to a micro-syringe to aspirate the peptide solution. A total of 56 ICR mice were anesthetized by intramuscular injection of avertin. After anesthesia, the mice were fixed supine, the tongue was gently pulled, the vocal folds were exposed with a laryngoscope, the trachea was gently inserted, and the nebulized solution was rapidly pushed and injected. Each mouse was administered 100 μL of a 0.4 mg/mL bleomycin solution via tracheal spray, with the treatment performed once. Seven days after modeling, the mice were randomly grouped for ShSPI treatment based on weight loss scores. An additional 8 mice received the vehicle (normal saline) and were designated as the sham group.
# A total of 48 suitable mice were randomly divided into five groups: the model control group (MC), the positive control group (PC), and the ShSPI low-dose groups (1 mg/kg), medium-dose groups (2 mg/kg), and high-dose groups (4 mg/kg).
# Drug Administration: Starting on day 7 post-modeling, ShSPI peptide treatment groups were anesthetized with intramuscular avertin and received tracheal spray administration of the peptide. The low-dose group was treated with 1 mg/kg ShSPI peptide, the medium-dose group with 2 mg/kg, and the high-dose group with 4 mg/kg. The positive control group, without anesthesia, received 200 mg/kg pirfenidone (IPFD) via oral gavage. All groups were treated once daily for seven consecutive days.
# The left lobe of the lung was collected from each mouse for total RNA extraction using RNAiso Plus, following the manufacturer’s instructions. The extracted RNA was quantified using a UV spectrophotometer. One microgram of total RNA was reverse transcribed into cDNA using a first-strand cDNA synthesis kit, following the provided protocol. Quantitative PCR (qPCR) was performed on a QuantStudio system using 2× SYBR Green qPCR Master Mix, and β-actin served as the internal control. The PCR reaction utilized a two-step protocol: 95 °C for 15 s, followed by 60 °C for 60 s, repeated for 40 cycles. Gene expression levels were calculated using the 2^−ΔΔCt method.
# ICR healthy mice = experiment: Single administration toxicity study: blood biochemistry and electrolytes; type: in vivo; settings: single airway spray, day 14 post-dose, serum, automated biochemistry analyzer, mean ± s
# Method: Specific pathogen-free (SIPF) grade ICR healthy mice (with an equal number of males and females, procured from Hunan Slaughter King Laboratory Animal Co., Changsha, China) were randomly divided into four experimental groups and received ShSPI via airway spray at doses of 0 mg/kg (control), 40 mg/kg, 80 mg/kg, or 160 mg/kg in a single administration. Following treatment, the mice were monitored for a 14-day observation period. On the fourteenth day, blood plasma samples were collected for precise measurement and analysis of hematological and biochemical parameters. The specific process is as follows.
# On day 14 post-dose, approximately 1.7–2.0 mL of whole blood was collected for hematological and biochemical analyses. Hematological parameters were assessed using an automated hematology analyzer, while biochemical parameters were evaluated with an automated biochemistry analyzer. Prior to blood collection, all mice were fasted for at least 12 h. For hematological analysis, 200 μL of whole blood was immediately transferred into EDTA-containing tubes. For biochemical analysis, 1.5 mL of whole blood was placed into serum separator tubes without anticoagulant and centrifuged to isolate serum.
# [2] = 40 mg/kg ShSPI, n = 6, * p < 0.05 vs blank control
# [3] = 80 mg/kg ShSPI, n = 6, * p < 0.05 vs blank control
compound,measurement,setting,value
"CC[C@H](C)[C@@H]1NC(=O)[C@H](C)NC(=O)[C@@H]2CCCN2C(=O)[C@@H]2CSSC[C@H](NC(=O)[C@H](CO)NC(=O)[C@H](CC(N)=O)NC(=O)[C@H](CO)NC(=O)[C@H](Cc3ccc(O)cc3)NC(=O)[C@H](CCSC)NC(=O)[C@H](CCCNC(=N)N)NC(=O)CNC(=O)[C@H](Cc3ccccc3)NC(=O)[C@H](CCC(=O)O)NC(=O)[C@H](CC(=O)O)NC(=O)[C@H](Cc3ccccc3)NC(=O)[C@H](C(C)C)NC(=O)[C@@H]3CCCN3C(=O)[C@H](CCC(N)=O)NC(=O)[C@H](Cc3ccc(O)cc3)NC1=O)C(=O)N[C@@H](CCC(=O)O)C(=O)N[C@@H](CCSC)C(=O)N[C@@H](CCC(N)=O)C(=O)N[C@@H](CCCNC(=N)N)C(=O)N[C@@H](C)C(=O)N[C@@H](CCCNC(=N)N)C(=O)N[C@H](C(=O)N[C@@H](CC(C)C)C(=O)N[C@@H](CCCNC(=N)N)C(=O)NCC(=O)O)CSSC[C@H](N)C(=O)N1CCC[C@H]1C(=O)N[C@@H](CCC(N)=O)C(=O)N[C@@H](C(C)C)C(=O)N2 [ShSPI] (H-CPQVCPAIYQPVFDEFGRMYSNSCEMQRARCLRG-OH; disulfide 1-31, 5-24; N-terminus and C-terminus assumed)",TGF-β mRNA content in mouse lung tissue,[1]; ShSPI 1–4 mg/kg,no significant impact
same,"mRNA levels of pro-inflammatory cytokines (MCP-1, IL-6, IL-1β, IFN-γ) in lung tissue","[1]; ShSPI high dose 4 mg/kg, β-actin control",restored these pro-inflammatory cytokine ShSPI mRNA levels to normal
same,IL-10 mRNA level in lung tissue,"[1]; ShSPI low dose 1 mg/kg, β-actin control",restored the anti-inflammatory cytokine IL-10 mRNA levels to normal
same,ALBII,"ICR healthy mice; 40 mg/kg ShSPI, n = 6",29.13 ± 1.27 g/L
same,ALP,"ICR healthy mice; 40 mg/kg ShSPI, n = 6",85.25 ± 18.91 U/L
same,ALT,"ICR healthy mice; 40 mg/kg ShSPI, n = 6",44.95 ± 22.02 U/L
same,AST,"ICR healthy mice; 40 mg/kg ShSPI, n = 6",97.20 ± 13.33 U/L
same,CK,"ICR healthy mice; 40 mg/kg ShSPI, n = 6",236.4 ± 108.76 U/L
same,CREA-S,"ICR healthy mice; 40 mg/kg ShSPI, n = 6",21.70 ± 4.99 µmol/L
same,GLO2,"ICR healthy mice; 40 mg/kg ShSPI, n = 6",17.67 ± 0.80 g/L
same,Glu-G,"ICR healthy mice; 40 mg/kg ShSPI, n = 6",9.93 ± 1.48 mmol/L
same,T-Bil-VII,"ICR healthy mice; 40 mg/kg ShSPI, n = 6",1.73 ± 0.80 µmol/L
same,TC,"ICR healthy mice; 40 mg/kg ShSPI, n = 6",2.09 ± 0.33 mmol/L
same,TG,"ICR healthy mice; 40 mg/kg ShSPI, n = 6",1.35 ± 0.50 mmol/L
same,TPII,"ICR healthy mice; 40 mg/kg ShSPI, n = 6",46.81 ± 1.48 g/L
same,UREA,"ICR healthy mice; 40 mg/kg ShSPI, n = 6",17.07 ± 3.07 mmol/L
same,calcium binding,"ICR healthy mice; 40 mg/kg ShSPI, n = 6",1.23 ± 0.011 mmol/L
same,chloride ion,"ICR healthy mice; 40 mg/kg ShSPI, n = 6",106.80 ± 1.14 mmol/L
same,potassium ion,"ICR healthy mice; 40 mg/kg ShSPI, n = 6",4.82 ± 0.27 mmol/L
same,r-GT,"ICR healthy mice; 40 mg/kg ShSPI, n = 6",0.38 ± 0.20 U/L
same,sodium ion,"ICR healthy mice; 40 mg/kg ShSPI, n = 6",152.39 ± 1.75 mmol/L
same,calcium ionomer,ICR healthy mice; [2],1.23 ± 0.01 * mmol/L
same,total calcium,ICR healthy mice; [2],2.48 ± 0.02 * mmol/L
same,ALBII,"ICR healthy mice; 80 mg/kg ShSPI, n = 6",28.05 ± 1.53 g/L
same,ALP,"ICR healthy mice; 80 mg/kg ShSPI, n = 6",94.75 ± 22.33 U/L
same,ALT,"ICR healthy mice; 80 mg/kg ShSPI, n = 6",38.58 ± 7.12 U/L
same,AST,"ICR healthy mice; 80 mg/kg ShSPI, n = 6",92.95 ± 20.45 U/L
same,CK,"ICR healthy mice; 80 mg/kg ShSPI, n = 6",175.4 ± 69.9 U/L
same,CREA-S,"ICR healthy mice; 80 mg/kg ShSPI, n = 6",23.10 ± 2.24 µmol/L
same,GLO2,"ICR healthy mice; 80 mg/kg ShSPI, n = 6",17.21 ± 0.82 g/L
same,Glu-G,"ICR healthy mice; 80 mg/kg ShSPI, n = 6",9.71 ± 1.69 mmol/L
same,T-Bil-VII,"ICR healthy mice; 80 mg/kg ShSPI, n = 6",1.47 ± 0.43 µmol/L
same,TC,"ICR healthy mice; 80 mg/kg ShSPI, n = 6",2.21 ± 0.61 mmol/L
same,TG,"ICR healthy mice; 80 mg/kg ShSPI, n = 6",1.21 ± 0.32 mmol/L
same,TPII,"ICR healthy mice; 80 mg/kg ShSPI, n = 6",45.26 ± 1.62 g/L
same,UREA,"ICR healthy mice; 80 mg/kg ShSPI, n = 6",14.79 ± 3.07 mmol/L
same,calcium binding,"ICR healthy mice; 80 mg/kg ShSPI, n = 6",1.24 ± 0.05 mmol/L
same,chloride ion,"ICR healthy mice; 80 mg/kg ShSPI, n = 6",106.5 ± 1.26 mmol/L
same,potassium ion,"ICR healthy mice; 80 mg/kg ShSPI, n = 6",5.01 ± 0.46 mmol/L
same,r-GT,"ICR healthy mice; 80 mg/kg ShSPI, n = 6",0.00 ± 1.01 U/L
same,sodium ion,"ICR healthy mice; 80 mg/kg ShSPI, n = 6",150.7 ± 1.89 mmol/L
same,calcium ionomer,ICR healthy mice; [3],1.24 ± 0.05 * mmol/L
same,total calcium,ICR healthy mice; [3],2.49 ± 0.10 * mmol/L
same,ALBII,"ICR healthy mice; 160 mg/kg ShSPI, n = 6",30.1 ± 1.28 g/L
same,ALP,"ICR healthy mice; 160 mg/kg ShSPI, n = 6",98.6 ± 27.17 U/L
same,ALT,"ICR healthy mice; 160 mg/kg ShSPI, n = 6",39.80 ± 7.79 U/L
same,AST,"ICR healthy mice; 160 mg/kg ShSPI, n = 6",80.6 ± 16.79 U/L
same,CK,"ICR healthy mice; 160 mg/kg ShSPI, n = 6",156.4 ± 75.0 U/L
same,CREA-S,"ICR healthy mice; 160 mg/kg ShSPI, n = 6",19.1 ± 3.98 µmol/L
same,GLO2,"ICR healthy mice; 160 mg/kg ShSPI, n = 6",18.0 ± 1.06 g/L
same,Glu-G,"ICR healthy mice; 160 mg/kg ShSPI, n = 6",9.24 ± 1.33 mmol/L
same,TC,"ICR healthy mice; 160 mg/kg ShSPI, n = 6",2.26 ± 0.33 mmol/L
same,TG,"ICR healthy mice; 160 mg/kg ShSPI, n = 6",1.23 ± 0.35 mmol/L
same,TPII,"ICR healthy mice; 160 mg/kg ShSPI, n = 6",48.2 ± 1.79 g/L
same,UREA,"ICR healthy mice; 160 mg/kg ShSPI, n = 6",13.6 ± 4.00 mmol/L
same,calcium binding,"ICR healthy mice; 160 mg/kg ShSPI, n = 6",1.28 ± 0.03 mmol/L
same,calcium ionomer,"ICR healthy mice; 160 mg/kg ShSPI, n = 6",1.28 ± 0.03 mmol/L
same,chloride ion,"ICR healthy mice; 160 mg/kg ShSPI, n = 6",106.5 ± 1.44 mmol/L
same,potassium ion,"ICR healthy mice; 160 mg/kg ShSPI, n = 6",4.68 ± 0.30 mmol/L
same,r-GT,"ICR healthy mice; 160 mg/kg ShSPI, n = 6",0.31 ± 0.35 U/L
same,sodium ion,"ICR healthy mice; 160 mg/kg ShSPI, n = 6",152.9 ± 1.60 mmol/L
same,total calcium,"ICR healthy mice; 160 mg/kg ShSPI, n = 6, * p < 0.05 vs blank control",2.5 ± 0.06 * mmol/L
